Test results published in PubChem BioAssay AID1259407 (Chemical Carcinogenesis Research Information System (CCRIS), 2018).
The source made the active and inactive calls. How the calls were made is not given here.

Tested on: CCRIS mutagenicity, Ames/micronucleus/aberration tests
Assay: CCRIS mutagenicity studies
[1] = Test System: AMES SALMONELLA TYPHIMURIUM, Strain/Indicator: TA98, Metabolic Activation: NONE, Method: PREINCUBATION
[2] = Test System: AMES SALMONELLA TYPHIMURIUM, Strain/Indicator: TA98, Metabolic Activation: NONE, Method: STANDARD PLATE
[3] = Test System: AMES SALMONELLA TYPHIMURIUM, Strain/Indicator: TA98, Metabolic Activation: RAT, LIVER, S-9, AROCLOR 1254, Method: STANDARD PLATE

Measured: mutagenic call

O=[N+]([O-])c1cc(-c2ccccc2)cc([N+](=O)[O-])c1O
active: [1] active; positive

c1cc2c3c(c1)=C1OC1C=3Cc1cc3ccccc3cc1-2 (configuration not stated)
active: [2] active; positive | [3] active; positive

Nc1ccc(C=O)cc1
inactive: [1] inactive; negative | Test System: AMES SALMONELLA TYPHIMURIUM, Strain/Indicator: TA98, Metabolic Activation: RAT LIVER S-9, PHENOBARBITAL AND BETA-NAPHTHOFLAVONE (30%), Method: PREINCUBATION inactive; negative | Test System: AMES SALMONELLA TYPHIMURIUM, Strain/Indicator: TA98, Metabolic Activation: RAT LIVER S-9, PHENOBARBITAL AND BETA-NAPHTHOFLAVONE, Method: PREINCUBATION inactive; negative | Test System: AMES SALMONELLA TYPHIMURIUM, Strain/Indicator: TA100, Metabolic Activation: NONE, Method: PREINCUBATION inactive; negative | Test System: AMES SALMONELLA TYPHIMURIUM, Strain/Indicator: TA100, Metabolic Activation: RAT LIVER S-9, PHENOBARBITAL AND BETA-NAPHTHOFLAVONE (30%), Method: PREINCUBATION inactive; negative | Test System: AMES SALMONELLA TYPHIMURIUM, Strain/Indicator: TA100, Metabolic Activation: RAT LIVER S-9, PHENOBARBITAL AND BETA-NAPHTHOFLAVONE, Method: PREINCUBATION inactive; negative | Test System: AMES SALMONELLA TYPHIMURIUM, Strain/Indicator: TA1535, Metabolic Activation: NONE, Method: PREINCUBATION inactive; negative | Test System: AMES SALMONELLA TYPHIMURIUM, Strain/Indicator: TA1535, Metabolic Activation: RAT LIVER S-9, PHENOBARBITAL AND BETA-NAPHTHOFLAVONE (30%), Method: PREINCUBATION inactive; negative | Test System: AMES SALMONELLA TYPHIMURIUM, Strain/Indicator: TA1535, Metabolic Activation: RAT LIVER S-9, PHENOBARBITAL AND BETA-NAPHTHOFLAVONE, Method: PREINCUBATION inactive; negative | Test System: AMES SALMONELLA TYPHIMURIUM, Strain/Indicator: TA1537, Metabolic Activation: NONE, Method: PREINCUBATION inactive; negative | Test System: AMES SALMONELLA TYPHIMURIUM, Strain/Indicator: TA1537, Metabolic Activation: RAT LIVER S-9, PHENOBARBITAL AND BETA-NAPHTHOFLAVONE (30%), Method: PREINCUBATION inactive; negative | Test System: AMES SALMONELLA TYPHIMURIUM, Strain/Indicator: TA1537, Metabolic Activation: RAT LIVER S-9, PHENOBARBITAL AND BETA-NAPHTHOFLAVONE, Method: PREINCUBATION inactive; negative | Test System: E.COLI, Strain/Indicator: WP2UVRA, Metabolic Activation: NONE, Method: PREINCUBATION inactive; negative | Test System: E.COLI, Strain/Indicator: WP2UVRA, Metabolic Activation: RAT LIVER S-9, PHENOBARBITAL AND BETA-NAPHTHOFLAVONE (30%), Method: PREINCUBATION inactive; negative | Test System: E.COLI, Strain/Indicator: WP2UVRA, Metabolic Activation: RAT LIVER S-9, PHENOBARBITAL AND BETA-NAPHTHOFLAVONE, Method: PREINCUBATION inactive; negative

COCCCN(N=O)C(N)=O
active: Test System: E. COLI B, Strain/Indicator: H/R30R, Metabolic Activation: NONE active; positive | Test System: E. COLI B, Strain/Indicator: HS30R, Metabolic Activation: NONE active; positive

O=c1[nH]cnc2[nH]ncc12
inactive: Test System: AMES SALMONELLA TYPHIMURIUM, Strain/Indicator: TA98, Metabolic Activation: HAMSTER, LIVER, S-9, AROCLOR 1254, Method: STANDARD PLATE inactive; negative | [2] inactive; negative | [3] inactive; negative | Test System: AMES SALMONELLA TYPHIMURIUM, Strain/Indicator: TA100, Metabolic Activation: HAMSTER, LIVER, S-9, AROCLOR 1254, Method: STANDARD PLATE inactive; negative | Test System: AMES SALMONELLA TYPHIMURIUM, Strain/Indicator: TA100, Metabolic Activation: NONE, Method: STANDARD PLATE inactive; negative | Test System: AMES SALMONELLA TYPHIMURIUM, Strain/Indicator: TA100, Metabolic Activation: RAT, LIVER, S-9, AROCLOR 1254, Method: STANDARD PLATE inactive; negative | Test System: AMES SALMONELLA TYPHIMURIUM, Strain/Indicator: TA1535, Metabolic Activation: HAMSTER, LIVER, S-9, AROCLOR 1254, Method: STANDARD PLATE inactive; negative | Test System: AMES SALMONELLA TYPHIMURIUM, Strain/Indicator: TA1535, Metabolic Activation: NONE, Method: STANDARD PLATE inactive; negative | Test System: AMES SALMONELLA TYPHIMURIUM, Strain/Indicator: TA1535, Metabolic Activation: RAT, LIVER, S-9, AROCLOR 1254, Method: STANDARD PLATE inactive; negative | Test System: AMES SALMONELLA TYPHIMURIUM, Strain/Indicator: TA1537, Metabolic Activation: HAMSTER, LIVER, S-9, AROCLOR 1254, Method: STANDARD PLATE inactive; negative | Test System: AMES SALMONELLA TYPHIMURIUM, Strain/Indicator: TA1537, Metabolic Activation: NONE, Method: STANDARD PLATE inactive; negative | Test System: AMES SALMONELLA TYPHIMURIUM, Strain/Indicator: TA1537, Metabolic Activation: RAT, LIVER, S-9, AROCLOR 1254, Method: STANDARD PLATE inactive; negative | Test System: AMES SALMONELLA TYPHIMURIUM, Strain/Indicator: TA1538, Metabolic Activation: HAMSTER, LIVER, S-9, AROCLOR 1254, Method: STANDARD PLATE inactive; negative | Test System: AMES SALMONELLA TYPHIMURIUM, Strain/Indicator: TA1538, Metabolic Activation: NONE, Method: STANDARD PLATE inactive; negative | Test System: AMES SALMONELLA TYPHIMURIUM, Strain/Indicator: TA1538, Metabolic Activation: RAT, LIVER, S-9, AROCLOR 1254, Method: STANDARD PLATE inactive; negative | Test System: MOUSE LYMPHOMA, Strain/Indicator: L5178Y (TK+/TK-), Metabolic Activation: NONE, Method: SUSPENSION/PLATE inactive; negative. reevaluation of results: negative | Test System: MOUSE LYMPHOMA, Strain/Indicator: L5178Y (TK+/TK-), Metabolic Activation: RAT, LIVER, S-9, AROCLOR 1254, Method: SUSPENSION/PLATE inactive; negative. reevaluation of results: negative
